Test results taken from US20090227600A1, “4-(PYRAZINE-2-YL) -PYRROLIDINE -2-CARBOXYLIC ACID COMPOUNDS AND DERIVATIVES THEREOF AS HEPATITIS C VIRUS INHIBITORS” (priority 2004, published 2009).

How the values were obtained:
[1] = target: T1, HCV RNA Polymerase, recombinant full-length NS5B, genotype 1b (Hepatitis C virus genotype 1b, UniProt Q9WMX2); experiment: In vitro HCV RNA-dependent RNA polymerase inhibition assay, genotype 1b full-length enzyme; format: biochemical, HCV genotype 1b; conditions: genotype 1b full-length NS5B enzyme
T1 construct: Recombinant full-length NS5B; made in house
T1 sequence (Q9WMX2 2420-3010): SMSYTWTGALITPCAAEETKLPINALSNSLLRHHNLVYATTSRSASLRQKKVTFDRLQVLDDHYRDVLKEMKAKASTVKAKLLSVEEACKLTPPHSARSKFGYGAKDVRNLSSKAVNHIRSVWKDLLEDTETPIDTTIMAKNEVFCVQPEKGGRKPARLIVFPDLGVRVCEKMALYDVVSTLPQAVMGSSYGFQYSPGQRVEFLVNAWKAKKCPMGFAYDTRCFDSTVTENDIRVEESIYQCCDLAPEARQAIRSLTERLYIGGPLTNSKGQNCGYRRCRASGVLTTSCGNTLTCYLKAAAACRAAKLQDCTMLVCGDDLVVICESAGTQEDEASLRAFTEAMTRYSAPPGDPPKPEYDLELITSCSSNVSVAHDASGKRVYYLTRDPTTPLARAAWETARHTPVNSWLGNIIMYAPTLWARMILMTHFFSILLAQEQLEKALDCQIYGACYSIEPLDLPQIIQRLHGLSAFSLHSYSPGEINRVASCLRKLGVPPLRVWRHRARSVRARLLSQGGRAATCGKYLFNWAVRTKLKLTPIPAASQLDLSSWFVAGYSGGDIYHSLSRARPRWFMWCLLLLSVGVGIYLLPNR
Method: Incorporation of [^33P]-GMP into RNA was followed by absorption of the biotin labelled RNA polymer by streptavidin containing SPA beads. A synthetic template consisting of biotinylated 13mer-oligoG hybridised to polyrC was used as a homopolymer substrate.
b) Genotype 1b Full-Length Enzyme
Reaction Conditions were 0.5 μM [^33P]-GTP (20 Ci/mMol), 1 mM Dithiothreitol, 20 mM MgCl2, 5 mM MnCl2, 20 mM Tris-HCl, pH7.5, 1.6 μg/mL polyC/0.256 μM biotinylated oligoG13, 10% glycerol, 0.01% NP-40, 0.2 u/μL RNasin and 50 mM NaCl.
HCV RNA Polymerase (Recombinant full-length NS5B (Lohmann et al, J. Virol. 71 (11), 1997, 8416. ‘Biochemical properties of hepatitis C virus NS5B RNA-dependent RNA polymerase and identification of amino acid sequence motifs essential for enzymatic activity’) expressed in baculovirus and purified to homogeneity) was added to 4 nM final concentration.
5× concentrated assay buffer mix was prepared using 1M MnCl2 (0.25 mL), glycerol (2.5 mL), 10% NP-40 (0.025 mL) and Water (7.225 mL), Total 10 mL.
2× concentrated enzyme buffer contained 1M-Tris-HCl, pH7.5 (0.4 mL), 5M NaCl (0.2 mL), 1M-MgCl2 (0.4 mL), glycerol (1 mL), 10% NP-40 (10 μL), 1M DTT (20 μL) and water (7.97 mL), Total 10 mL.
Substrate Mix was prepared using 5× Concentrated assay Buffer mix (4 μL), [^33P]-GTP (10 μCi/μL, 0.02 μL), 25 μM GTP (0.4 μL), 40 u/μL RNasin (0.1 μL), 20 μg/mL polyrC/biotinylated-oligoG (1.6 μL), and Water (3.94 μL), Total 10 μL.
Enzyme Mix was prepared by adding 1 mg/ml full-length NS5B polymerase (1.5 μL) to 2.81 mL 2×-concentrated enzyme buffer.
The Assay was set up using compound (1 μL), Substrate Mix (10 μL), and Enzyme Mix (added last to start reaction) (10 μL), Total 21 μL.
The reaction was performed in a U-bottomed, white, 96-well plate. The reaction was mixed on a plate-shaker, after addition of the Enzyme, and incubated for 1 h at 22° C. After this time, the reaction was stopped by addition of 40 μL 1.875 mg/ml streptavidin SPA beads in 0.1 M EDTA. The beads were incubated with the reaction mixture for 1 h at 22° C. after which 120 μL 0.1 M EDTA in PBS was added. The plate was sealed, mixed centrifuged and incorporated radioactivity determined by counting in a Trilux (Wallac) or Topcount (Packard) Scintillation Counter.
After subtraction of background levels without enzyme, any reduction in the amount of radioactivity incorporated in the presence of a compound, compared to that in the absence, was taken as a measure of the level of inhibition. Ten concentrations of compounds were tested in three- or fivefold dilutions. From the counts, percentage of inhibition at highest concentration tested or IC50s for the compounds were calculated using GraFit 3, GraFit 4 or GraFit 5 (Erithacus Software Ltd.) software packages or a data evaluation macro for Excel based on XLFit Software (IDBS).

[2] = system: Huh-7 HCV replicon cells (genotype 1a); experiment: Replicon ELISA cell based assay, genotype 1a; set-up: species or system HCV genotype 1a; conditions: Hepatitis C virus, Huh-7 genotype 1a replicon, 72 hours
Method: 100 μL of medium containing 10% FCS were added to each well of clear, flat-bottomed 96 well microplates, excepting wells in the top row. Test compound was diluted in assay medium to twice the final required starting concentration from a 40 mM stock solution in DMSO. 200 μL of the starting dilution were introduced into two wells each in the top row and doubling dilutions made down the plate by the sequential transfer of 100 μL aliquots with thorough mixing in the wells; the final 100 μL were discarded. The two bottom rows were not used for compound dilutions. Huh-7 HCV replicon cell monolayers nearing confluency were stripped from growth flasks with versene-trypsin solution and the cells were resuspended in assay medium at either 2×10^5 cells/mL (sub-line 5-15; genotype 1b; Lohmann, V., Komer, F., Koch, J-O., Herian, U., Thielmann, L. And Bartenschlager, R., 1999, Science, 285, pp 110-113) or at 3×10^5 cells/mL (genotype 1a; Gu, B., Gates, A. T., Isken, O., Behrens, S. E. and Sarisky, R. T., J. Virol., 2003, 77, 5352-5359). 100 μL of cell suspension were added to all wells and the plates incubated at 37° C. for 72 hours in a 5% CO2 atmosphere.
Following incubation, the assay medium was aspirated from the plates. The cell sheets were washed by gentle immersion in phosphate buffered saline (PBS), which was then aspirated off, and fixed with acetone:methanol (1:1) for 5 minutes. Following a further wash with PBS, 100 μL of ELISA diluent (PBS+0.05% v/v Tween 20+2% w/v skimmed milk powder) were added to all wells and the plates incubated at 37° C. for 30 minutes on an orbital platform. The diluent was removed and each well then received 50 μL of a 1/200 dilution of anti-HCV specific, murine, monoclonal antibody (either Virostat #1872 or #1877), except for wells in one of the compound-free control rows which received diluent alone to act as negative controls. The plates were incubated at 37° C. for 2 hours and washed 3 times with PBS/0.05% Tween 20, then 50 μL of horseradish peroxidase conjugated, anti-mouse, rabbit polyclonal serum (Dako #P0260), diluted 1/1000, were added to all wells. The plates were incubated for a further hour, the antibody removed and the cell sheets washed 5 times with PBS/Tween and blotted dry. The assay was developed by the addition of 50 μL of ortho-phenylenediamine/peroxidase substrate in urea/citrate buffer (SigmaFast, Sigma #P-9187) to each well, and colour allowed to develop for up to 15 minutes. The reaction was stopped by the addition of 25 μL per well of 2 M sulphuric acid and the plates were read at 490 nm on a Fluostar Optima spectrophotometer.
The substrate solution was removed and the plates were washed in tap water, blotted dry and the cells stained with 5% carbol fuchsin in water for 30 minutes. The stain was discarded and the cell sheets washed, dried and examined microscopically to assess cytotoxicity.
The absorbance values from all compound-free wells that had received both primary and secondary antibodies were averaged to obtain a positive control value. The mean absorbance value from the compound-free wells that had not received the primary antibody was used to provide the negative (background) control value. The readings from the duplicate wells at each compound concentration were averaged and, after the subtraction of the mean background from all values, were expressed as a percentage of the positive control signal. The quantifiable and specific reduction of expressed protein detected by the ELISA in the presence of a drug can be used as a measure of replicon inhibition. GraFit software was used to plot the curve of percentage inhibition against compound concentration and derive the 50% inhibitory concentration (IC50) for the compound.

SMILES | IC50 [1] [nM] | IC50 [2] [nM]
COc1cc(C(=O)N2[C@@H](c3nccs3)[C@@H](c3cnccn3)C[C@@]2(CC(C)C)C(=O)O)ccc1C(C)(C)C (racemic) [Compound A, rel-(2S,4S,5R)-2-Isobutyl-1-(4-tert-butyl-3-methoxybenzoyl)-4-(pyrazin-2-yl)-5-(1,3-thiazol-2-yl)pyrrolidine-2-carboxylic acid, reference compound] | 100 to 500 | 10000 to 100000
COc1cc(C(=O)N2[C@@H](c3nccs3)[C@@H](c3cnccn3)C[C@@]2(Cc2ccccn2)C(=O)O)ccc1C(C)(C)C (racemic) [Compound C, rel-(2R,4S,5R)-1-(4-tert-Butyl-3-methoxybenzoyl)-2-(pyridin-2-ylmethyl)-4-(pyrazin-2-yl)-5-(1,3-thiazol-2-yl)pyrrolidine-2-carboxylic acid, reference compound] | 100 to 500 | 10000 to 100000
COc1cc(C(=O)N2[C@@H](c3nccs3)[C@@H](c3cnccn3)C[C@@]2(Cc2c[nH]cn2)C(=O)O)ccc1C(C)(C)C (racemic) [Compound D, rel-(2R,4S,5R)-1-(4-tert-Butyl-3-methoxybenzoyl)-2-(1H-imidazol-4-yl-methyl)-4-(pyrazin-2-yl)-5-(1,3-thiazol-2-yl)-pyrrolidine-2-carboxylic acid, reference compound] | 100 to 500 | > 100000
COc1cc(C(=O)N2[C@@H](c3cncs3)[C@@H](c3cnccn3)C[C@@]2(CCSC)C(=O)O)ccc1C(C)(C)C (racemic) [Compound E, rel-(2R,4S,5R)-1-(4-tert-Butyl-3-methoxybenzoyl)-2-(2-(methylthio)ethyl)-4-(pyrazin-2-yl)-5-(1,3-thiazol-5-yl)-pyrrolidine-2-carboxylic acid, reference compound] | 100 to 500 | 10000 to 100000
COc1cc(C(=O)N2[C@@H](c3nccs3)[C@@H](c3cnccn3)C[C@@]2(CCS(C)(=O)=O)C(=O)O)ccc1C(C)(C)C (racemic) [Compound F, rel-(2R,4S,5R)-1-(4-tert-Butyl-3-methoxybenzoyl)-2-(2-(methylsulphonyl)ethyl)-4-pyrazin-2-yl-5-(1,3-thiazol-2-yl)-pyrrolidine-2-carboxylic acid, reference compound] | > 500 | > 100000
COc1cc(C(=O)N2[C@@H](c3nccs3)[C@@H](c3cnccn3)C[C@@]2(Cc2ccccc2)C(=O)O)ccc1C(C)(C)C (racemic) [Compound G, rel-(2R,4S,5R)-1-(4-tert-Butyl-3-methoxybenzoyl)-2-(phenylmethyl)-4-(pyrazin-2-yl)-5-(1,3-thiazol-2-yl)pyrrolidine-2-carboxylic acid, reference compound] | 100 to 500 | 10000 to 100000
COc1cc(C(=O)N2[C@@H](c3nccs3)[C@@H](c3cnccn3)C[C@@]2(Cc2cscn2)C(=O)O)ccc1C(C)(C)C (racemic) [Example 1, rel-(2R,4S,5R)-1-(3-Methoxy-4-tert-butylbenzoyl)-4-(pyrazin-2-yl)-2-(1,3-thiazol-4-ylmethyl)-5-(1,3-thiazol-2-yl)pyrrolidine-2-carboxylic acid] | < 100 | < 10000
COc1cc(C(=O)N2[C@@H](c3nccs3)[C@@H](c3cnccn3)C[C@@]2(Cc2nccs2)C(=O)O)ccc1C(C)(C)C (racemic) [Example 3, rel-(2R,4S,5R)-1-(3-Methoxy-4-tert-butylbenzoyl)-4-(pyrazin-2-yl)-2-(1,3-thiazol-2-ylmethyl)-5-(1,3-thiazol-2-yl)pyrrolidine-2-carboxylic acid] | < 100 | < 10000
COc1cc(C(=O)N2[C@@H](c3ncc(C)s3)[C@@H](c3cnccn3)C[C@@]2(Cc2ccsn2)C(=O)O)ccc1C(C)(C)C (racemic) [Example 5, rel-(2R,4S,5R)-1-(3-Methoxy-4-tert-butylbenzoyl)-5-(5-methyl-1,3-thiazol-2-yl)-4-(pyrazin-2-yl)-2-(1,2-thiazol-3-ylmethyl)pyrrolidine-2-carboxylic acid] | < 100 | < 10000
COc1cc(C(=O)N2[C@@H](c3nccs3)[C@@H](c3cnccn3)C[C@@]2(Cc2ccsn2)C(=O)O)ccc1C(C)(C)C (racemic) [Example 7, rel-(2R,4S,5R)-1-(3-Methoxy-4-tert-butylbenzoyl)-4-(pyrazin-2-yl)-2-(1,2-thiazol-3-ylmethyl)-5-(1,3-thiazol-2-yl)pyrrolidine-2-carboxylic acid] | < 100 | < 10000
COc1cc(C(=O)N2[C@@H](c3ncc(C)s3)[C@@H](c3cnccn3)C[C@@]2(Cn2cccn2)C(=O)O)ccc1C(C)(C)C (racemic) [Example 9, rel-(2R,4S,5R)-1-(3-Methoxy-4-tert-butylbenzoyl)-5-(5-methyl-1,3-thiazol-2-yl)-4-(pyrazin-2-yl)-2-(1H-pyrazol-1-ylmethyl)pyrrolidine-2-carboxylic acid] | < 100 | < 10000
COc1cc(C(=O)N2[C@@H](c3nccs3)[C@@H](c3cnccn3)C[C@@]2(Cn2cccn2)C(=O)O)ccc1C(C)(C)C (racemic) [Example 11, rel-(2R,4S,5R)-1-(3-Methoxy-4-tert-butylbenzoyl)-4-(pyrazin-2-yl)-2-(1H-pyrazol-1-ylmethyl)-5-(1,3-thiazol-2-yl)pyrrolidine-2-carboxylic acid] | < 100 | < 10000
